Test results published in US20140187556A1, “ANTI-AMYLOID COMPOUNDS AND METHODS” (Treventis Corporation, priority 2011, published 2014).

Key:
[1] = Metabolic stability in mouse liver microsomes; format: in vitro ADME; details: 1 μM compound, 0.5 mg/mL microsomal protein, 1 mM NADPH
Experimental: This assay is used to determine the percent remaining and intrinsic clearance of a test compound incubated with pooled mouse liver microsomes in the presence of NADPH. Further details on this method may be found in Jeffrey P, et al., Utility of metabolic stability screening: comparison of in vitro and in vivo clearance. enobiotica. 2001 August-September; 31(8-9):591-8 and Lin J H, et al., Role of pharmacokinetics and metabolism in drug discovery and development. Pharmacol Rev. 1997; 49(4):403-49; each of which is hereby incorporated by reference. Test compound was formulated in 300 μL of DMSO at 10 mM and was diluted to 1 μM with final concentration of organic solvent <0.25% for the experiment. Pooled liver microsomes were prepared from male mice, with 1 mM NADPH. Test compound was incubated at 37 degrees Celsius in buffer containing 0.5 mg/mL microsomal protein; the reaction was initiated by adding cofactors and sampled at 0, 10, 20, 30, and 60 minutes. A positive control (5 μM testosterone) was incubated and initiated in parallel for quality control. Samples were analyzed using an LTQ-Orbitrap XL mass spectrometer; HRMS was used to determine the peak area response ratio (peak area corresponding to test compound or control divided by that of an analytical internal standard) without running a standard curve.
Results were reported for selected compounds in the table of Example 1, as % test compound remaining after 60 minutes. Compounds which have less than about 5% remaining are not considered to be metabolically stable in mouse liver microsomes, while compounds with more than about 5% remaining are considered to be metabolically stable in mouse liver microsomes.

[2] = biological target: T1, Aβ40 (Homo sapiens, UniProt P05067); experiment: Thioflavin T (ThT) Aβ aggregation assay; format: biochemical; details: for IC50: 20 μM Aβ40, 37 degrees C; for inhibition at 50 µM: 50 μM compound
T1 construct: pre-treated Aβ40 (40 μM in 20 mM Tris, pH 7.4)
Experimental: Aβ40 (1.0 mg) was pre-treated in a 1.5 mL microfuge tube with HFIP (1 mL) and sonicated for 20 min to disassemble any pre-formed Aβ aggregates. The HFIP was removed with a stream of argon and the Aβ dissolved in Tris base (5.8 mL, 20 mM, pH ˜10). The pH was adjusted to 7.4 with concentrated HCl (−10 μL) and the solution filtered using a syringe filter (0.2 μm) before being used.
The kinetic ThT assay for Aβ aggregation is similar to that of Chalifour et al (Chalifour et al, 2003, J. Biol. Chem. 278:34874-81). Briefly, pre-treated Aβ40 (40 μM in 20 mM Tris, pH 7.4), was diluted with an equal volume of 8 μM ThT in Tris (20 mM, pH 7.4, 300 mM NaCl). Aliquots of Aβ/ThT (200 μL) were added to wells of a black polystyrene 96-well plate, followed by 2 μL of a compound in DMSO (variable concentration), or DMSO alone (controls). Incubations were performed in triplicate and were taken to contain 20 μM Aβ, various concentration of compound in 20 mM Tris, pH 7.4, 150 mM NaCl, 1% DMSO. Plates were covered with clear polystyrene lids and incubated at 37 degrees C. in a Tecan Genios microplate reader. Fluorescence readings (λex=450 nm, λem=480 nm) were taken every 15 min., after first shaking at high intensity for 15 s and allowing to settle for 10 s before each reading. Active compounds attenuated the increase in fluorescence over time that occurred in controls.

[3] = Blood-brain barrier penetration potential using MDR1-MDCK cell monolayers; format: in vitro ADME; details: dog; for Papp A→B at 120 min, 5 µM: MDCK-MDR1, apical dosing, pH 7.4, read-out: Papp A-B × 10^−6 cm/s; for Papp B→A at 120 min, 5 µM: MDCK-MDR1, basolateral dosing, pH 7.4, read-out: Papp B-A × 10^−6 cm/s; for efflux ratio at 120 min, 5 µM: MDCK-MDR1, pH 7.4, read-out: Efflux ratio (Papp B-A)/(Papp A-B)
From the text: This assay is used to determine the blood-brain barrier (BBB) penetration potential of a test compound using MDR1-MDCK cell monolayers. Further details on this method may be found in Taub M E, et al., Functional assessment of multiple Pglycoprotein (P-gp) probe substrates: Influence of cell line and modulator concentration on P-gp activity. Drug Metab Dispos. 2005 November; 33(11): 1679-87 and Wang Q, et al., Evaluation of the MDR-MDCK cell line as a permeability screen for the blood-brain barrier. Int J. Pharm. 2005 Jan. 20; 288(2):349-59; each of which is hereby incorporated by reference. Test compound was formulated in 300 μL of DMSO at 10 mM and diluted to 5 μM in HBSSg with maximum DMSO concentration not greater than 1%. Confluent monolayers of MDR1-MDCK cells, 7 to 11 days old, were used. A receiver well, having apical and basolateral sides at pH 7.4, was used with 1% BSA in modified Hanks buffer (HBSSg). Two monolayers were dosed with test compound in each direction (N=2). Apical side dosing was used for A-B assessment and basolateral side was used for B-A assessment; taken together, this information provides a bidirectional permeability potential. Apical and basolateral sides were sampled at 120 minutes and concentrations of test compound were determined using an LC-MS/MS method with a minimum 4 point calibration curve. Apparent permeability (Papp) in both directions (A-B and B-A) was calculated, as was the efflux ratio (Papp B-A)/(Papp A-B).

T1 sequence (P05067 672-711 limits assumed): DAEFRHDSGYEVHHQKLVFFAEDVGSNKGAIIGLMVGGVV

**Q.** What does the source list for `CN(C)C(=O)c1cccc(-c2ccc([N+](=O)[O-])c(NCc3ccccc3)c2)c1` [TRV 1102, 3′-(benzylamino)-N,N-dimethyl-4′-nitrobiphenyl-3-carboxamide]?
**A.** Stability in mouse liver microsomes (% test compound remaining after 60 min) [1]: <1.0%; IC50 [2]: 4.11 ± 1.2 µM

**Q.** Which results are given for `CCN(CC)C(=O)c1cccc(-c2ccc([N+](=O)[O-])c(NCc3ccccc3)c2)c1` [TRV 1110, 3′-(benzylamino)-N,N-diethyl-4′-nitrobiphenyl-3-carboxamide]?
**A.** Stability in mouse liver microsomes (% test compound remaining after 60 min) [1]: <1.0%; IC50 [2]: 0.7 ± 0.9 µM

**Q.** For `O=C(c1cccc(-c2ccc([N+](=O)[O-])c(NCc3ccccc3)c2)c1)N1CCCCC1` [TRV 1111, (3′-(benzyl amino)-4′-nitrobiphenyl-3-yl)(piperidin-1-yl)methanone], which “Stability in mouse liver microsomes (% test compound remaining after 60 min)” value [1] is on record?
**A.** <1.0%

**Q.** And the IC50 [2]?
**A.** 0.33 ± 0.44 µM

**Q.** With `CC(C)N(C(=O)c1cccc(-c2ccc([N+](=O)[O-])c(NCc3ccccc3)c2)c1)C(C)C` [TRV 1112, 3′-(benzylamino)-N,N-diisopropyl-4′-nitrobiphenyl-3-carboxamide] as the compound, how does the “Stability in mouse liver microsomes (% test compound remaining after 60 min)” value [1] read?
**A.** <1.0%

**Q.** What about the IC50 [2] of the same compound?
**A.** 1.41 ± 1.11 µM

**Q.** What does the source list for `CN1CCN(C(=O)c2cccc(-c3ccc([N+](=O)[O-])c(NCc4ccccc4)c3)c2)CC1` [TRV 1115, (3′-(benzyl amino)-4′-nitrobiphenyl-3-yl)(4-methylpiperazin-1-yl)methanone]?
**A.** Stability in mouse liver microsomes (% test compound remaining after 60 min) [1]: <1.0%; IC50 [2]: 2.67 ± 0.1 µM

**Q.** Which “Stability in mouse liver microsomes (% test compound remaining after 60 min)” value [1] does the source give for `O=C(c1cccc(-c2ccc([N+](=O)[O-])c(NCc3ccccc3)c2)c1)N1CCCC1` [TRV 1117, (3′-(benzylamino)-4′-nitrobiphenyl-3-yl)(pyrrolidin-1-yl)methanone] here?
**A.** <1.0%

**Q.** What about the IC50 [2] of the same compound?
**A.** 2.94 ± 1.64 µM

**Q.** For `NS(=O)(=O)c1ccccc1-c1ccc([N+](=O)[O-])c(NCc2ccccc2)c1` [TRV 1121, 3′-(benzylamino)-4′-nitro-[1,1′-biphenyl]-2-sulfonamide], which “Stability in mouse liver microsomes (% test compound remaining after 60 min)” value [1] is on record?
**A.** <1.0%

**Q.** What about the IC50 [2] of the same compound?
**A.** 24.6 ± 6.83 µM

**Q.** With `NS(=O)(=O)c1cccc(-c2ccc([N+](=O)[O-])c(NCc3ccccc3)c2)c1` [TRV 1122, 3′-(benzylamino)-4′-nitro-[1,1′-biphenyl]-3-sulfonamide] as the compound, how does the “Stability in mouse liver microsomes (% test compound remaining after 60 min)” value [1] read?
**A.** 1.5%

**Q.** And the IC50 [2]?
**A.** 14.1 ± 3.07 µM

**Q.** What about the Papp A→B at 120 min, 5 µM [3] of the same compound?
**A.** 27.5 ×10⁻⁶ cm/s

**Q.** What about the Papp B→A at 120 min, 5 µM [3] of the same compound?
**A.** 52.5 ×10⁻⁶ cm/s

**Q.** And the efflux ratio at 120 min, 5 µM [3]?
**A.** 1.9

**Q.** Which “Stability in mouse liver microsomes (% test compound remaining after 60 min)” value [1] does the source give for `O=[N+]([O-])c1ccc(-c2ccc(-c3nn[nH]n3)cc2)cc1NCc1ccccc1` [TRV 1126, N-benzyl-4-nitro-4′-(2H-tetrazol-5-yl)-[1,1′-biphenyl]-3-amine] here?
**A.** 41%

**Q.** What about the IC50 [2] of the same compound?
**A.** 1.1 ± 0.33 µM

**Q.** And the Papp A→B at 120 min, 5 µM [3]?
**A.** 34.1 ×10⁻⁶ cm/s

**Q.** And the Papp B→A at 120 min, 5 µM [3]?
**A.** 47.8 ×10⁻⁶ cm/s

**Q.** And the efflux ratio at 120 min, 5 µM [3]?
**A.** 1.4

**Q.** What does the source list for `CC(O)c1cccc(-c2ccc([N+](=O)[O-])c(NCc3ccccc3)c2)c1` (centres unmarked) [TRV 1129, 1-(3′-(benzylamino)-4′-nitrobiphenyl-3-yl)ethanol]?
**A.** Stability in mouse liver microsomes (% test compound remaining after 60 min) [1]: <1.0%; IC50 [2]: 6.49 ± 0.21 µM

**Q.** With `O=C(c1ccccc1)N1CCN(c2ccc([N+](=O)[O-])c(N3CCCC3)c2)CC1` [TRV 1141, (4-(4-nitro-3-(pyrrolidin-1-yl)phenyl)piperazin-1-yl)(phenyl)methanone] as the compound, how does the “Stability in mouse liver microsomes (% test compound remaining after 60 min)” value [1] read?
**A.** <1.0%

**Q.** What about the IC50 [2] of the same compound?
**A.** ~10 µM

**Q.** What does the source list for `O=C(c1ccccc1)N1CCN(c2ccc([N+](=O)[O-])c(NC3CC3)c2)CC1` [TRV 1142, (4-(3-(cyclopropylamino)-4-nitrophenyl)piperazin-1-yl)(phenyl)methanone]?
**A.** Stability in mouse liver microsomes (% test compound remaining after 60 min) [1]: 1.7%; IC50 [2]: ~10 µM

**Q.** Which “Stability in mouse liver microsomes (% test compound remaining after 60 min)” value [1] does the source give for `O=[N+]([O-])c1ccc(-c2cccc(CO)c2)cc1NCc1ccccc1` [TRV 1147] here?
**A.** <1.0%

**Q.** And the IC50 [2]?
**A.** 3.54 ± 0.46 µM

**Q.** With `CC(C)Nc1cc(N2CCN(C(=O)c3ccccc3)CC2)cc(C(F)(F)F)c1` [TRV 1169, (4-(3-(isopropylamino)-5-(trifluoromethyl)phenyl)piperazin-1-yl)(phenyl)methanone] as the compound, how does the IC50 [2] read?
**A.** > 50 µM

**Q.** Which IC50 [2] does the source give for `O=C(c1ccccc1)N1CCN(c2cc(F)cc(N3CCCC3)c2)CC1` [TRV 1170, (4-(3-fluoro-5-(pyrrolidin-1-yl)phenyl)piperazin-1-yl)(phenyl)methanone] here?
**A.** > 50 µM

**Q.** Which IC50 [2] does the source give for `O=C(c1ccccc1)N1CCN(c2cc(F)c(C(F)(F)F)c(N3CCCC3)c2)CC1` [TRV 1175, (4-(3-fluoro-5-(pyrrolidin-1-yl)-4-(trifluoromethyl)phenyl)piperazin-1-yl)(phenyl)methanone] here?
**A.** > 50 µM

**Q.** For `CC(C)Nc1cc(N2CCN(C(=O)c3ccccc3)CC2)cc(F)c1C(F)(F)F` [TRV 1176, (4-(3-fluoro-5-(isopropylamino)-4-(trifluoromethyl)phenyl)piperazin-1-yl)(phenyl)methanone], which IC50 [2] is on record?
**A.** > 50 µM

**Q.** Which IC50 [2] does the source give for `O=C(c1ccccc1)N1CCN(c2ccc(-n3cnnn3)c(NCc3ccccc3)c2)CC1` [TRV 1178, (4-(3-(benzylamino)-4-(1H-tetrazol-1-yl)phenyl)piperazin-1-yl)(phenyl)methanone] here?
**A.** > 50 µM

**Q.** Which IC50 [2] does the source give for `CC(C)Nc1cc(F)cc(N2CCN(C(=O)c3ccccc3)CC2)c1` [TRV 1179, (4-(3-fluoro-5-(isopropylamino)phenyl)piperazin-1-yl)(phenyl)methanone] here?
**A.** > 50 µM

**Q.** With `O=C(c1ccccc1)N1CCN(c2ccc(OC(F)F)c(NCc3ccccc3)c2)CC1` [TRV 1184, (4-(3-(benzyl amino)-4-(difluoromethoxy)phenyl)piperazin-1-yl)(phenyl)methanone] as the compound, how does the IC50 [2] read?
**A.** > 50 µM

**Q.** Which IC50 [2] does the source give for `O=C(c1ccccc1)N1CCN(c2ccc(OC(F)(F)F)c(NCc3ccccc3)c2)CC1` [TRV 1185, (4-(3-(benzylamino)-4-(trifluoromethoxy)phenyl)piperazin-1-yl)(phenyl)methanone] here?
**A.** > 50 µM

**Q.** With `O=C(c1ccccc1)N1CCN(c2ccc(S(=O)(=O)C(F)(F)F)c(NCc3ccccc3)c2)CC1` [TRV 1186, (4-(3-(benzylamino)-4-((trifluoromethyl)sulfonyl)phenyl)piperazin-1-yl)(phenyl)methanone] as the compound, how does the IC50 [2] read?
**A.** > 50 µM

**Q.** With `O=C(c1ccccc1)N1CCN(c2cc(F)c(F)c(NCc3ccccc3)c2)CC1` [TRV 1190, (4-(3-(benzylamino)-4,5-difluorophenyl)piperazin-1-yl)(phenyl)methanone] as the compound, how does the IC50 [2] read?
**A.** ~50 µM

**Q.** For `CC(O)c1cccc(-c2ccc(OC(F)F)c(NCc3ccccc3)c2)c1` (centres unmarked) [TRV 1192, 1-(3′-(benzylamino)-4′-(difluoromethoxy)biphenyl-3-yl)ethanol], which IC50 [2] is on record?
**A.** ~50 µM

**Q.** Which results are given for `CC(O)c1cccc(-c2ccc(F)c(N3CCCC3)c2)c1` (centres unmarked) [TRV 1246]?
**A.** IC50 [2]: < 50 µM; inhibition at 50 µM [2]: 56.8%

**Q.** Which results are given for `CC(O)c1cccc(-c2ccc(C#N)c(N3CCCC3)c2)c1` (centres unmarked) [TRV 1248]?
**A.** IC50 [2]: ~50 µM; inhibition at 50 µM [2]: 47.9%
